Experimental data as given in patent US9957271B2, “Substituted bicyclic aza-heterocycles and analogues as sirtuin modulators” (GlaxoSmithKline, LLC, priority 2012, dated 2018).
Like-named read-outs stand apart in the source and are kept apart here.

Molecular target: T1, SIRT1 (Homo sapiens, UniProt Q96EB6)
T1 sequence (Q96EB6 1-747): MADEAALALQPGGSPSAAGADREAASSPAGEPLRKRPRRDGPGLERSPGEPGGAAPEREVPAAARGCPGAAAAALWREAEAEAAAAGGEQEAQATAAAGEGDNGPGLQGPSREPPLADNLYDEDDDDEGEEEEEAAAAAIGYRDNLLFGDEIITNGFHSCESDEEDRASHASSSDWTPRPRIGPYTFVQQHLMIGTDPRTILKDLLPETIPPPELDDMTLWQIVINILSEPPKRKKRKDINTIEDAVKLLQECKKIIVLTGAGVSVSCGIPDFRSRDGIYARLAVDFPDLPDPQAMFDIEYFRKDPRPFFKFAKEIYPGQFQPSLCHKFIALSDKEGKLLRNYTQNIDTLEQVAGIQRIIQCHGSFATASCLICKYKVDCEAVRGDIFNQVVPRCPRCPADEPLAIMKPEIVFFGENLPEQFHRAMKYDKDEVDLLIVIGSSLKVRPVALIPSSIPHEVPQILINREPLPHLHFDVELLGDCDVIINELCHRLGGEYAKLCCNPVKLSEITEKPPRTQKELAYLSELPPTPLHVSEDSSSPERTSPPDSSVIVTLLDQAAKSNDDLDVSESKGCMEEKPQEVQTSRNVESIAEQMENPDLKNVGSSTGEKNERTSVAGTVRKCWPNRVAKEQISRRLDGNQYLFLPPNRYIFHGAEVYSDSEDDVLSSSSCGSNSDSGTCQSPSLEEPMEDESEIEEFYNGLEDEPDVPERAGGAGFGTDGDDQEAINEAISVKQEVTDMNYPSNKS
Test: TAMRA based mass spectrometry assay of SIRT1 activity
Assay type: biochemical
Settings: for Emax: read-out: TAMRA % Fold Act
Procedure, shortened: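 Recombinant N-terminal His-tagged human SIRT1 (10 nM, E. coli) incubated 25 min at 25 °C with 0.5 μM 5TMR-labelled p53-derived acetyl-peptide and 120 μM βNAD+ in Tris-acetate pH 8 buffer with DTT and 0.05% BSA, compound at varying concentrations. Stopped with formic acid; deacetylated peptide or OAADPR measured by mass spectrometry relative to DMSO controls.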

[1] = concentration of test compound giving 150% activation of SIRT1, TAMRA peptide substrate
[2] = percent maximum fold activation of SIRT1, TAMRA peptide substrate
[3] = TAMRA assay, concentration giving 150% activation of SIRT1
[4] = TAMRA assay, percent maximum fold activation

Row | Structure (SMILES) | TAMRA EC1.5 (μM) [1] | Emax [2] [%] | TAMRA EC1.5 (μM) [3] | Emax [4] [%] | TAMRA % Fold Act [4]
1 | O=C(Nc1cc(N2CCOCC2)ccn1)c1cnc2ccc(-c3ccccc3C(F)(F)F)nn12 [Compound 176] | A (EC1.5<1 μM) | < 350 | – | – | –
2 | O=C(Nc1cccc(N2CCOCC2)n1)c1cnc2ccc(-c3cccc(F)c3Cl)nn12 [Compound 178] | A (EC1.5<1 μM) | < 350 | – | – | –
3 | O=C(Nc1ccnc(N2CCC2)c1)c1cnc2ccc(-c3cccc(F)c3Cl)nn12 [Compound 179] | A (EC1.5<1 μM) | < 350 | – | – | –
4 | O=C(Nc1cccc(CN2CCOCC2)n1)c1cnc2ccc(-c3cccc(F)c3Cl)nn12 [Compound 180] | B (EC1.5 1-25 μM) | ≥ 350 | – | – | –
5 | O=C(Nc1ccncc1)c1cnc2ccc(-c3cccc(F)c3Cl)nn12 [Compound 181] | B (EC1.5 1-25 μM) | < 350 | – | – | –
6 | O=C(Nc1cnccn1)c1cnc2ccc(-c3cccc(F)c3Cl)nn12 [Compound 184] | B (EC1.5 1-25 μM) | < 350 | – | – | –
7 | CS(=O)(=O)c1ccccc1-c1ccc2ncc(C(=O)Nc3cccc(N4CCOCC4)n3)n2n1 [Compound 185] | B (EC1.5 1-25 μM) | < 350 | – | – | –
8 | CS(=O)(=O)c1ccccc1-c1ccc2ncc(C(=O)Nc3ccncc3)n2n1 [Compound 187] | C (EC1.5>25 μM) | < 350 | – | – | –
9 | CS(=O)(=O)c1ccccc1-c1ccc2ncc(C(=O)Nc3ccccn3)n2n1 [Compound 188] | C (EC1.5>25 μM) | < 350 | – | – | –
10 | N#Cc1ccccc1-c1ccc2ncc(C(=O)Nc3cccc(N4CCOCC4)n3)n2n1 [Compound 191] | A (EC1.5<1 μM) | < 350 | – | – | –
11 | Cc1cc(-c2ccccc2C(F)(F)F)nn2c(C(=O)Nc3ccncc3)cnc12 [Compound 193, 8-methyl-N-(pyridin-4-yl)-6-(2-(trifluoromethyl)phenyl)imidazo[1,2-b]pyridazine-3-carboxamide] | A (EC1.5<1 μM) | ≥ 350 | – | – | –
12 | Cc1cc(-c2ccccc2C(F)(F)F)nn2c(C(=O)Nc3ccccn3)cnc12 [Compound 194] | A (EC1.5<1 μM) | ≥ 350 | – | – | –
13 | Cc1cc(-c2ccccc2C(F)(F)F)nn2c(C(=O)Nc3cccc(CN4CCOCC4)n3)cnc12 [Compound 195] | A (EC1.5<1 μM) | ≥ 350 | – | – | –
14 | COc1cc(NC(=O)c2cnc3ccc(-c4ccccc4C(F)(F)F)nn23)nc(OC)n1 [Compound 196] | A (EC1.5<1 μM) | ≥ 350 | – | – | –
15 | O=C(Nc1ccc(N2CCOCC2)cn1)c1cnc2ccc(-c3ccccc3C(F)(F)F)nn12 [Compound 199] | – | – | A (EC1.5<1 μM) | ≥ 350 | –
16 | N#Cc1ccccc1-c1ccc2ncc(C(=O)Nc3ccccn3)n2n1 [Compound 200] | – | – | B (EC1.5 1-25 μM) | < 350 | –
17 | N#Cc1ccccc1-c1ccc2ncc(C(=O)Nc3ccnc(N4CCC4)c3)n2n1 [Compound 201] | – | – | B (EC1.5 1-25 μM) | ≥ 350 | –
18 | N#Cc1ccccc1-c1ccc2ncc(C(=O)Nc3cccc(CN4CCOCC4)n3)n2n1 [Compound 202] | – | – | B (EC1.5 1-25 μM) | < 350 | –
19 | N#Cc1ccccc1-c1ccc2ncc(C(=O)Nc3ccncc3)n2n1 [Compound 203] | – | – | B (EC1.5 1-25 μM) | < 350 | –
20 | N#Cc1ccccc1-c1ccc2ncc(C(=O)Nc3cnccn3)n2n1 [Compound 205] | – | – | B (EC1.5 1-25 μM) | < 350 | –
21 | Cc1cc(-c2ccccc2C(F)(F)F)nn2c(C(=O)Nc3cnccn3)cnc12 [Compound 208] | – | – | A (EC1.5<1 μM) | ≥ 350 | –

Row | Structure (SMILES) | TAMRA EC1.5 (μM) [1] | Emax [2] [%] | TAMRA EC1.5 (μM) [3] | Emax [4] [%] | TAMRA % Fold Act [4]
22 | Cc1cc2ncc(C(=O)Nc3cccc(N4CCOCC4)n3)n2nc1-c1ccccc1C(F)(F)F [Compound 209] | – | – | A (EC1.5<1 μM) | ≥ 350 | –
23 | O=C(Nc1ncccc1N1CCOCC1)c1cnc2ccc(-c3ccccc3C(F)(F)F)nn12 [Compound 211] | – | – | C (EC1.5>25 μM) | < 350 | –
24 | O=C(Nc1cccc(OCC(O)CO)n1)c1cnc2ccc(-c3ccccc3C(F)(F)F)nn12 (stereo not shown) [Compound 212, N-(6-(2,3-dihydroxypropoxy)pyridin-2-yl)-6-(2-(trifluoromethyl)phenyl)imidazo[1,2-b]pyridazine-3-carboxamide] | – | – | A (EC1.5<1 μM) | ≥ 350 | –
25 | O=C(Nc1ccc(N2CCOCC2)nc1)c1cnc2ccc(-c3ccccc3C(F)(F)F)nn12 [Compound 216] | – | – | B (EC1.5 1-25 μM) | ≥ 350 | –
26 | O=C(Nc1cncc(N2CCOCC2)c1)c1cnc2ccc(-c3ccccc3C(F)(F)F)nn12 [Compound 217] | – | – | A (EC1.5<1 μM) | ≥ 350 | –
27 | Cc1cnc(C(=O)Nc2cnc3ccc(-c4ccccc4C(F)(F)F)nn23)cn1 [Compound 219, 5-methyl-N-(6-(2-(trifluoromethyl)phenyl)imidazo[1,2-b]pyridazin-3-yl)pyrazine-2-carboxamide] | – | – | A (EC1.5<1 μM) | ≥ 350 | –
28 | Cc1nc(C(=O)Nc2cnc3ccc(-c4ccccc4C(F)(F)F)nn23)c(C)s1 [Compound 220] | – | – | A (EC1.5<1 μM) | ≥ 350 | –
29 | Cc1cc2ncc(C(=O)Nc3ccnc(N4CCC4)c3)n2nc1-c1ccccc1C(F)(F)F [Compound 225] | – | – | A (EC1.5<1 μM) | ≥ 350 | –
30 | O=C(Nc1nccc(OCC(O)CO)n1)c1cnc2ccc(-c3ccccc3C(F)(F)F)nn12 (stereo not shown) [Compound 226] | – | – | B (EC1.5 1-25 μM) | ≥ 350 | –
31 | Cc1cc(C)nc(NC(=O)c2cnc3c(C)c(C)c(-c4ccccc4C(F)(F)F)nn23)c1 [Compound 228] | – | – | A (EC1.5<1 μM) | ≥ 350 | –
32 | Cc1c(-c2ccccc2Cl)nn2c(C(=O)Nc3cccc(N4CCOCC4)n3)cnc2c1C [Compound 229] | – | – | A (EC1.5<1 μM) | ≥ 350 | –
33 | Cc1cccnc1C(=O)Nc1cnc2ccc(-c3ccccc3C(F)(F)F)nn12 [Compound 232] | – | – | A (EC1.5<1 μM) | ≥ 350 | –
34 | Cc1cccc(C(=O)Nc2cnc3ccc(-c4ccccc4C(F)(F)F)nn23)n1 [Compound 234] | – | – | A (EC1.5<1 μM) | ≥ 350 | –
35 | O=C(Nc1cnc2ccc(-c3ccccc3C(F)(F)F)nn12)c1cccc(OCC(O)CO)n1 (stereo not shown) [Compound 235] | – | – | A (EC1.5<1 μM) | – | A (Fold activation ≥350%)
36 | Cc1nc(NC(=O)c2cnc3ccc(-c4ccccc4C(F)(F)F)nn23)sc1C [Compound 237] | – | – | A (EC1.5<1 μM) | ≥ 350 | –
37 | O=C(Nc1ccncc1)c1cnn2ccc(-c3ccccc3C(F)(F)F)nc12 [Compound 240, N-(pyridin-4-yl)-5-(2-(trifluoromethyl)phenyl)pyrazolo[1,5-a]pyrimidine-3-carboxamide] | – | – | A (EC1.5<1 μM) | ≥ 350 | –
38 | O=C(Nc1cccc(N2CCOCC2)n1)c1cnn2ccc(-c3ccccc3C(F)(F)F)nc12 [Compound 241] | – | – | A (EC1.5<1 μM) | ≥ 350 | –
39 | Cc1cc(C)nc(NC(=O)c2cnc3ccc(-c4ccccc4F)nn23)c1 [Compound 243] | – | – | A (EC1.5<1 μM) | ≥ 350 | –
40 | Cc1cc(C)nc(NC(=O)c2cnc3ccc(-c4ccccc4Cl)nn23)c1 [Compound 245] | – | – | A (EC1.5<1 μM) | ≥ 350 | –
41 | Cc1cc2ncc(C(=O)Nc3cnccn3)n2nc1-c1ccccc1C(F)(F)F [Compound 246] | – | – | B (EC1.5 1-25 μM) | ≥ 350 | –
